Assay results taken from patent US20210346506A1, “PRODRUG OF ITRACONAZOLE AND USES THEREOF” (priority 2020, published 2021).

Assays:
[1] = Compound stability test in human blood; type: in vitro ADME; conditions: for Remaining Percentages (%) / half-life at 1 μM: 37° C., 1 μM; for half-life at 1 μM: in vitro half-life in human blood
Description: (§1) One (1) mM test compound working solution was prepared in DMSO. One (1) mM propantheline working solution was prepared in acetonitrile, wherein propantheline was used as positive control in this assay.
(§2) Ten (10) μL of each test compound solution and the control compound solution were respectively added into a 96 deep well plate, and 40 μL of acetonitrile:water (V/V=1:1) was added to each well to dilute the 1 mM test compound solution to 200 μM working solution.
(§3) Mouse blood (male CD-1 mouse blood, Pharmaron, Lot# PH-ADME-Mouse-20180329) or human blood (Pharmaron, Lot# PH-ADME-Human-20180329) of 398 μL was added to each well of an incubation plate, and then the incubation plate was pre-warmed at 37° C. for 15 minutes. After the pre-incubation, 2 μL of 200 μM working solution prepared above was spiked to the pre-warmed 398 μL blood to reach a final concentration of 1 μM. The final concentration of DMSO was 0.1% and the final concentration of acetonitrile was 0.2%. The assay was performed in duplicate.
(§4) The incubation plate was incubated at 37° C. water bath with shaking at 50 rpm, and aliquots of 50 μL were taken from each well of the incubation plate at 0, 10, 30, 60, 90, 120 and 180 minutes.
(§5) The reaction was stopped by the addition of 50 μL of pure water. The plate was vortexed for 30 seconds at 1,000 rpm and then added with 300 μL of cold acetonitrile containing internal standards (100 nM aprozolam, 200 nM caffeine, 100 nM tolbutamide).
(§6) All samples were vortexed for 10 minutes, followed by centrifugation at 14,000 rpm for 15 minutes to precipitate proteins. 100 μL of each supernatant was transferred to a new plate, and diluted with ultrapure water according to the LC-MS signal response and peak shape.
(§7) Samples were analyzed by LC-MS/MS.
(§8) • LC system: ACQUITY UPLC® I-Class • MS analysis: Waters XEVO® TQ-D with an ESI interface • Column temperature: 40° C. • Injection volume: 3 μL • Column: Waters XSelect HSS T3 C18, 2.5 μm, 2.1×50 mm column • Mobile phase: 0.1% formic acid in water (A) and 0.1% formic acid in acetonitrile (B)
(§9) • Ion source: Turbo spray • Ionization model: ESI • Scan type: MRM • Cone gas: 150 L/h • Desolvation gas: 1000 L/h • Desolvation temperature: 500° C. • Capillary voltage: 3.00 KV
(§10) All calculations were carried out using Microsoft Excel. Peak area ratios were determined from extracted ion chromatograms, and percent compounds remaining at each time point were calculated by the following equation:
(§11) Remaining Percentaget min(%)=Peak Area Ratiot min/Peak Area Ratio0 min×100, where Peak Area Ratiot min referred to peak area ratio of control and test compounds at t min; and Peak Area Ratio0 min referred to peak area ratio of control and test compounds at zero time point. The in vitro half-life (in vitro t1/2) was determined from the slope value: In vitro T1/2=−(0.693/k).

[2] = Compound stability test in mouse blood; type: in vitro ADME; conditions: for half-life at 1 μM: male, CD-1, in vitro half-life in mouse blood; for half-life at 1 μM / Remaining Percentages (%): 37° C., 1 μM
Description: as §1, §2, §3, §4, §5, §6, §7, §8, §9, §10, §11

[3] = Pharmacokinetic study of itraconazole release in mice after intravenous and oral dosing of Compound 6; type: in vivo, mouse; conditions: for Plasma itraconazole Concentration (ng/mL): mice, individual mice
Description: Compound 6 was dissolved in DMSO:PEG400:water (1:4:5, v/v/v) with a final concentration of 0.2 mg/ml or 0.5 mg/ml. The 0.2 mg/ml solution was used for intravenous dosing, and the 0.5 mg/ml solution was for oral dosing.
Three male C57BL/6 mice were intravenously administered with Compound 6 at a dose of 1.0 mg/kg, and blood samples were collected at 2 min, 15 min, 30 min, 1 h, 2 h, 4 h, 6 h, 8 h, and 24 h post administration.
Three male C57BL/6 mice were orally given Compound 6 at a dose of 5.0 mg/kg, and blood samples were collected at 15 min, 30 min, 1 h, 2 h, 4 h, 6 h, 8 h, and 24 h post administration.
(§12) And dose levels were corrected in PK parameter calculation due to the salt factor.
(§13) The blood samples were subject to LC-MS/MS analysis, to monitor the plasma concentrations of both the parent compound and Itraconazole.
(§14) Column: Waters XSELECT HSS T3 2.5 μm 2.1×50 mm
(§15) Mobile phase: 5% Acetonitrile in Water (0.1% Formic acid) (A) and 95% Acetonitrile in Water (0.1% Formic acid) (B)
(§16) Gradient: flow rate at 0.6 mL/min
(§17) AB Sciex Triple Quad 5500 LC/MS/MS instrument (Serial NO. BB212611510)
(§18) Quantification: Internal Standard Method

[4] = Pharmacokinetic study of itraconazole release in mice after intravenous and oral dosing of Compound 3; type: in vivo, mouse; conditions: for Plasma itraconazole Concentration (ng/mL): mice, individual mice
Description: Compound 3 was dissolved in DMSO:PEG400:water (1:4:5, v/v/v) with a final concentration of 0.2 mg/ml or 0.5 mg/ml. The 0.2 mg/ml solution was used for intravenous dosing, and the 0.5 mg/ml solution was for oral dosing.
Three male C57BL/6 mice were intravenously administered with Compound 3 at a dose of 1.0 mg/kg, and blood samples were collected at 2 min, 15 min, 30 min, 1 h, 2 h, 4 h, 6 h, 8 h, and 24 h post administration.
Three male C57BL/6 mice were orally given Compound 3 at a dose of 5.0 mg/kg, and blood samples were collected at 15 min, 30 min, 1 h, 2 h, 4 h, 6 h, 8 h, and 24 h post administration.
as §12, §13, §14, §15, §16, §17, §18

[5] = relatively low dose; cited from earlier work

| Structure (SMILES) | Remaining Percentages (%) ([1]; human blood, 0 min) | Remaining Percentages (%) ([1]; human blood, 10 min) | Remaining Percentages (%) ([1]; human blood, 30 min) | Remaining Percentages (%) ([1]; human blood, 60 min) | Remaining Percentages (%) ([1]; human blood, 90 min) | Remaining Percentages (%) ([1]; human blood, 120 min) | Remaining Percentages (%) ([1]; human blood, 180 min) | half-life at 1 μM [1] [h] | half-life at 1 μM [2] [h] | Remaining Percentages (%) ([2]; mouse blood, 0 min) | Remaining Percentages (%) ([2]; mouse blood, 10 min) | Remaining Percentages (%) ([2]; mouse blood, 30 min) | Remaining Percentages (%) ([2]; mouse blood, 60 min) | Remaining Percentages (%) ([2]; mouse blood, 90 min) | Remaining Percentages (%) ([2]; mouse blood, 120 min) | Remaining Percentages (%) ([2]; mouse blood, 180 min) | other results |
| --- | --- | --- | --- | --- | --- | --- | --- | --- | --- | --- | --- | --- | --- | --- | --- | --- | --- |
| CCOC(=O)OC[n+]1cnn(CC2(c3ccc(Cl)cc3Cl)OCC(COc3ccc(N4CCN(c5ccc(-n6cnn(C(C)CC)c6=O)cc5)CC4)cc3)O2)c1.[Cl-] (stereo not shown) [Compound 6] | 100 | 94.2 | 77.3 | 55.3 | 41.1 | 34.0 | 15.2 | 1.12 | 0.167 | 100 | 51.5 | 12.6 | 3.10 | 0.595 | 0.186 | 0.232 | abnormal clinical symptoms during the test ([3]; male C57BL/6 mice, 1.0 mg/kg intravenous or 5.0 mg/kg oral Compound 6): No mice were observed with abnormal clinical symptoms; Plasma itraconazole Concentration (ng/mL) ([3]; IV Dose 0.822 mg/kg Compound 6, 8 h, 0.822 mg/kg): BLOQ; Plasma itraconazole Concentration (ng/mL) ([3]; IV Dose 0.822 mg/kg Compound 6, 24 h): BLOQ; Plasma itraconazole Concentration (ng/mL) ([3]; PO Dose 4.11 mg/kg Compound 6, 24 h): BLOQ |
| CCC(C)n1ncn(-c2ccc(N3CCN(c4ccc(OCC5COC(Cn6c[n+](COC(C)=O)cn6)(c6ccc(Cl)cc6Cl)O5)cc4)CC3)cc2)c1=O.[Cl-] (stereo not shown) [Compound 3] | 100 | 94.0 | 82.3 | 67.5 | 61.5 | 55.3 | 34.3 | 2.05 | 0.983 | 100 | 88.1 | 67.1 | 46.3 | 30.3 | 24.4 | 12.0 | stability in blood, in words ([1]; human blood): more stable among exemplary compounds; abnormal clinical symptoms during the test ([4]; male C57BL/6 mice, 1.0 mg/kg intravenous or 5.0 mg/kg oral Compound 3): No mice were observed with abnormal clinical symptoms; Plasma itraconazole Concentration (ng/mL) ([4]; IV Dose 0.860 mg/kg Compound 3, 8 h, 0.86 mg/kg): BLOQ; Plasma itraconazole Concentration (ng/mL) ([4]; IV Dose 0.860 mg/kg Compound 3, 24 h): BLOQ; Plasma itraconazole Concentration (ng/mL) ([4]; PO Dose 4.30 mg/kg Compound 3, 24 h): BLOQ; stability in blood, in words ([2]; mouse blood): more stable among exemplary compounds |
| CCC(C)n1ncn(-c2ccc(N3CCN(c4ccc(OCC5COC(Cn6cncn6)(c6ccc(Cl)cc6Cl)O5)cc4)CC3)cc2)c1=O (stereo not shown) [Itraconazole] |  |  |  |  |  |  |  |  |  |  |  |  |  |  |  |  | adverse effect, in words [5]: no observed adverse effect |
